According to patent US20050106220A1, “Agent for improving mobility and general health of senior companion animals” (priority 2003, published 2005):

Key:
Format in all cases: in vivo
sympathetic nerve = experiment: RR interval by Holter ECG after oral GABA in Beagle dogs; settings: 10 month old Beagle dogs
Procedure: Three 10 month old Beagle dogs were confined in darkness from 19:00 (7pm) until 7:00 (7am). An electrocardiogramr was obtained under free movement using a Holter ECG recorder (wireless installation-type ECG recorder). An electrocardiogram was obtained every 30 minutes for 1 minute. A capsule containing 300 mg/kg body weight of GABA was orally administered to each dog just before the dark period. As a control, an empty capsule was administered.
An RR interval (msec, inverse number of a heart rate) relative to the time that lapsed after administration was measured.

senior dogs [1] = experiment: Dog food mixed with GABA fed to senior dogs, observation of age-related conditions; settings: 2 weeks
Procedure: Dog food was mixed with GABA (30 mg/kg body weight). Mongrel dog A (17 years old) was fed this mixture once a day in the evening for 2 weeks. […] Dog food was mixed with GABA (30 mg/kg body weight). Mongrel dog B (14 years old) was fed this mixture once a day for 2 weeks. […] Dog food was mixed with GABA (30 mg/kg body weight). Toy poodle A (15 years old) was fed this mixture once a day for 2 weeks. […] Dog food was mixed with GABA (30 mg/kg body weight). Toy poodle B (12 years old) was fed this mixture once a day for 2 weeks. […] Dog food was mixed with GABA (30 mg/kg body weight). Pomeranian A (14 years old) was fed this mixture once a day for 2 weeks. […] Dog food was mixed with GABA (30 mg/kg body weight). Shiba Ken (Japanese breed) A (16 years old) was fed with this mixture once a day for 2 weeks.

senior dogs [2] = experiment: Intravenous SKF 97541 in a senior dog, turning motion; settings: Shiba Ken B (15 years old), single intravenous dose of from 0.01 to 0.1 mg/kg body weight
Procedure: SKF 97541 was intravenously administered once to Shiba Ken B (15 years old) at a dose of from 0.01 to 0.1 mg/kg body weight.

[3] = Mongrel dog B (14 years old), 30 mg/kg body weight in dog food once a day
[4] = Pomeranian A (14 years old), 30 mg/kg body weight in dog food once a day
[5] = Shiba Ken A (16 years old), 30 mg/kg body weight in dog food once a day
[6] = Toy poodle A (15 years old), 30 mg/kg body weight in dog food once a day
[7] = Toy poodle B (12 years old), 30 mg/kg body weight in dog food once a day

Row | SMILES | stimulus of the sympathetic nerve (sympathetic nerve; GABA 300 mg/kg body weight oral capsule) | average RR interval (inverse number of a heart rate) (sympathetic nerve; GABA 300 mg/kg body weight oral capsule before dark period, approximately 2 to 9 hours after administration, vs empty capsule) | forced and labored breathing (senior dogs [1]; Mongrel dog A (17 years old), 30 mg/kg body weight in dog food once a day in the evening) | drinking behaviour (senior dogs [1]; [3]) | leg trembling (senior dogs [1]; [3]) | mobility and general health (senior dogs [1]; [3]) | continuous sleeping all day long (senior dogs [1]; [4]) | desire to go for a walk (senior dogs [1]; [4]) | general health and activity level (senior dogs [1]; [4]) | ability to move around (senior dogs [1]; [5]) | mobility (senior dogs [1]; [5]) | behaviour towards owner (senior dogs [1]; [6]) | difficult breathing (senior dogs [1]; [6]) | sense of hearing and sense of smell, mobility and general health (senior dogs [1]; [6]) | mobility (senior dogs [1]; [7]) | walking (tottering steps before administration) (senior dogs [1]; [7]) | turning motion (senior dogs [2])
1 | NCCCC(=O)O [GABA, γ-aminobutyric acid] | stimulus of the sympathetic nerve was observed | shortened | disappeared | drank water on its own | disappeared | improvement in mobility and general health was observed | decreased | clearly showed signs that he wanted to go for a walk | improvement in general health and activity level was observed | able to move around easier and clearly with less pain | improvement in mobility was observed | sought out his owner and wanted to stay by him | decreased | improvement | improvement in mobility was observed | walked firmly with steady steps | –
2 | CP(=O)(O)CCCN [SKF 97541, 3-aminopropyl(methyl)phosphinic acid] | – | – | – | – | – | – | – | – | – | – | – | – | – | – | – | – | eliminated at any dose
